# In patent US20160067211A1, “PHARMACEUTICAL COMPOSITION” (Eberhard Karls Universitaet Tuebingen Medizinische Fakultaet, priority 2013, published 2016):
# Key:
# [1] = tested on: SK-MEL-28 melanoma cells; test: Real time cell monitoring assay (xCELLigence), SK-MEL-28; type: cell-based, human; details: SK-MEL-28, 20, 50 and 100 μM, 104 hours, vs. control
# Procedure: FIG. 5: real time cell monitoring of BLM and SK-MEL-28 melanoma cells treated with 6-PN and 8-PN. (A) BML and SK-MEL-28 cells were treated 24 hours after seeding with different concentrations of 6-PN and 8-PN (20 μM, 50 μM and 100 μM) over a 104 hour time period. The cellular impedance was measured over the entire observation time using the xCELLigence™ SP system and is depicted by the cell index (CI). All CI-values were normalized shortly before the treatment started. […] As a positive control, Triton X-100 0.1% was used to induce cell death. Shown are the mean±SD of three independent experiments, each performed in triplicates (B, C). […]
# The human melanoma cell lines BLM and SK-MEL-28 (2.5×10^3 cells/well) were seeded in 96 well plates. The cells were treated after 24 hours with different concentrations of 6-PN or 8-PN (20 μM, 50 μM and 100 μM) and monitored by measurements of electrical impedance in 15 minutes intervals for an overall time span of in total 104 hours using the xCELLigencer® SP Systems (Roche Applied Science). The cell index values were calculated using the RTCA software (1.0.0.0805). […]
# The human metastatic melanoma cell lines BLM and SK-MEL-28 were treated once with rising concentrations of 6-PN or 8-PN (20 μM, 50 μM and 100 μM) and monitored continuously for an overall time span of 104 hours using a real time monitoring assay (FIG. 5A). […]
# [2] = tested on: angiogenesis induced by basic fibroblast growth factor and vascular endothelial growth factor; details: induced by bFGF and VEGF, three-dimensional collagen gel in vitro; cited from earlier work
# [3] = biological target: P-glycoprotein (Homo sapiens, UniProt P08183); details: cited from earlier work
# [4] = tested on: PI (3) K/Akt-signal path in MCF-7 cells; details: MCF-7 cells in vitro; cited from earlier work
# Sequence of P-glycoprotein (P08183 whole entry): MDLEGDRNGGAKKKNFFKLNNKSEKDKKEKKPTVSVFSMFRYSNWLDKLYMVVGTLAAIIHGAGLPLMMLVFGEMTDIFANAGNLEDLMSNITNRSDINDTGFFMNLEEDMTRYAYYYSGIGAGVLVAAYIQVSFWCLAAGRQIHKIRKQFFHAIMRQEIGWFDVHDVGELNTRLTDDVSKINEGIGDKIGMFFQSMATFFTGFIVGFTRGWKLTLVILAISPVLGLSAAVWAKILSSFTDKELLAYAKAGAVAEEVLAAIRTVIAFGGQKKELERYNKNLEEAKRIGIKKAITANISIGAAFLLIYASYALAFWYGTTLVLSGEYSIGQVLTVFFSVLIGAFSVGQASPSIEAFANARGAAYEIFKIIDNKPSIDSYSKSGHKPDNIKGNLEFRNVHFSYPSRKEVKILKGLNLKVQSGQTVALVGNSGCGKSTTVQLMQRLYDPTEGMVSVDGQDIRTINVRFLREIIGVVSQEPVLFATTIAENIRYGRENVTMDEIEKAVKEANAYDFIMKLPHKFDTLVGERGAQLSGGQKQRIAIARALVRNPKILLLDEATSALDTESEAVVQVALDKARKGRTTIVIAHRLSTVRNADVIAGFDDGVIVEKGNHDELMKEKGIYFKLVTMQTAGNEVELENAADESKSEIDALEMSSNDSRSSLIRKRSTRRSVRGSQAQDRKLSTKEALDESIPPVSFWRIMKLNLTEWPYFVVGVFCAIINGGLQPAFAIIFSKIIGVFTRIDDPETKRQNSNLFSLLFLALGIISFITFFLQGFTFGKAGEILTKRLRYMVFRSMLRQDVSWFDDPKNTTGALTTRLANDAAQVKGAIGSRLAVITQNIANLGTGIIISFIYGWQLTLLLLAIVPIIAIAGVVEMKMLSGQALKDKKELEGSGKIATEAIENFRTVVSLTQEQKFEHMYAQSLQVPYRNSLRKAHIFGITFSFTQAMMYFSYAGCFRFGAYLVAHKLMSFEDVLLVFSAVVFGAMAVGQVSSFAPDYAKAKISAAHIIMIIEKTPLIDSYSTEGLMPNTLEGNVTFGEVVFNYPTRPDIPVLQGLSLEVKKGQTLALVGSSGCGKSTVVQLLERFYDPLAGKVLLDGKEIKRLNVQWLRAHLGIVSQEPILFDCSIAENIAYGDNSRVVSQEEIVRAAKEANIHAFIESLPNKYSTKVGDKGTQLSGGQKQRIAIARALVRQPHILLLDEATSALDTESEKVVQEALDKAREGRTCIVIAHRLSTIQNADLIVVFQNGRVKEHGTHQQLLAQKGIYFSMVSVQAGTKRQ
compound,measurement,setting,value
"CC(C)=CCc1c(O)cc(O)c2c1OC(c1ccc(O)cc1)CC2=O (stereo not shown) [8-PN, 5,7-Dihydroxy-2-(4-hydroxy-phenyl)-8-(3-methyl-but-2-enyl)-chroman-4-one]",normalized cell index (CI),[1],descended over time
same,angiogenesis,[2],inhibits the angiogenesis
same,inhibition of the P-glycoprotein,[3],inhibition
same,activation of the PI (3) K/Akt-signal path,[4],directly inhibits
